Consider three compounds from patent US20080206761A1, “Ex Vivo Gene Expression in Whole Blood as a Model of Assessment of Individual Variation to Dietary Supplements” (priority 2005, published 2008).

Series [1] concerns IL-2 mRNA. The experiment in a line: PHA-induced IL-2 mRNA expression in heparinized whole blood ex vivo. Conditions: for ΔΔCt (mean ± standard deviation, n = 3), IL-2 mRNA: supplement 30 min, concentrations per footnote. The format is cell-based, human. The method, then:
(§1) In this embodiment, phytohemagglutinin-induced gene expression of interleukin-2 (IL-2), interleukin-4 (IL-4), and tumor necrosis factor-α (TNF-α) were quantitated in the following manner. Fifty μL of heparinized whole blood was incubated with various dietary supplements for a period of 30 minutes. The following supplements were employed: vitamins A, C, and D, epigallocatechin gallate (from green tea), genistein (from soy), and curcumin (from the spice turmeric). Vitamin A is known to stimulate the immune system. […] Vitamin D appears to have protective effects against certain cancers. Epigallocatechin gallate is a powerful antioxidant, appears to reduce the multidrug resistance found in cancer cells, and preferentially induces apoptosis in neoplastic cells. Genistein has been found in some studies to have anticarcinogenic activity; possible mechanisms of action include upregulation of apoptosis, inhibition of angiogenesis, inhibition of DNA topoisomerase II and inhibition of protein tyrosine kinases. Curcumin has proapoptotic effects in neoplastic cells and interferes with the activity of the transcription factor NF-κB, which is often highly overexpressed in such cells.
(§2) After incubation with the dietary supplement, 100 μg/mL phytohemagglutinin (PHA) was added and incubation was continued for an additional 2 hours at 37° C. The concentration of each dietary supplement (see Table I, note) was slightly higher than reported blood levels. Then mRNA was purified, cDNA was synthesized, and the levels of IL-2, IL-4, and TNF-α were quantitated by TaqMan real time polymerase chain reaction (PCR) (see Holland, et al., “Detection of specific polymerase chain reaction product by utilizing the 5′ to 3′ exonuclease activity of Thermus aquaticus DNA polymerase,” Proc Natl Acad Sci USA 1991; 88: 7276-80), as described below.
(§3) The mRNA and cDNA were prepared from the whole blood that was exposed to the dietary components, as well as the whole blood which remained unexposed. In brief, home-made 96-well filterplates were placed over collection plates, and 150 μl 5 mM Tris, pH 7.4, was applied. Following centrifugation at 120×g for 1 min at 4° C., 50 μl of blood samples were applied to each well and immediately centrifuged at 120×g for 2 min at 4° C., followed by washing of each well with 300 μl PBS once with centrifugation at 2000×g for 5 min at 4° C. Then, 60 μl stock lysis buffer, containing for example 0.5% N-Lauroylsarcosine, 4×SSC, 10 mM Tris HCl, pH 7.4, 1 mM EDTA, 0.1% IGEPAL CA-630, and 1.791 M guanidine thiocyanate, supplemented with 1% 2-mercaptoethanol (Bio Rad, Hercules, Calif., USA), 0.5 mg/ml proteinase K (Pierce, Rockford, Ill., USA), 0.1 mg/ml salmon sperm DNA (5 Prime Eppendorf/Brinkmann, Westbury, N.Y., USA), 0.1 mg/ml E. coli tRNA (Sigma), a cocktail of 10 mM each of the specific reverse primers shown in Table 2, and standard RNA34 oligonucleotides, were applied to the filterplates, followed by incubation at 37° C. for 10 min. The filterplates were then placed over oligo(dT)-immobilized microplates (GenePlate, RNAture), and centrifuged at 2000×g for 5 min at 4° C. Following overnight storage at 4° C., the microplates were washed with 100 μl plain lysis buffer 3 times, followed by 150 μl of wash buffer (0.5 M NaCl, 10 mM Tris, pH 7.4, 1 mM EDTA) 3 times at 4° C. The cDNA was directly synthesized in each well by adding 30 μl of buffer containing 1×RT-buffer, 1.25 mM each of dNTP, 4 units rRNasin, and 80 units of MMLV reverse transcriptase (Promega) (without primers), and incubation at 37° C. for 2 hours. The specific primer-primed cDNA existed in solution, and oligo(dT)-primed cDNA stayed immobilized in the microplate. […]

The test system of series [2] is IL-4 mRNA. The experiment in a line: PHA-induced IL-4 mRNA expression in heparinized whole blood ex vivo. The format is cell-based, human. The following applies: for ΔΔCt (mean ± standard deviation, n = 3), IL-4 mRNA: supplement 30 min, then 100 μg/mL PHA 2 h, concentrations per footnote; for effect on PHA-induced IL-4 expression, in words: summary over 7 subjects of Table I. The method, then: as §1, §2, §3

For series [3], the system named is TNF-α mRNA. The experiment in a line: PHA-induced TNF-α mRNA expression in heparinized whole blood ex vivo. The format is cell-based, human. Conditions: for ΔΔCt (mean ± standard deviation, n = 3), TNFα mRNA: supplement 30 min, then 100 μg/mL PHA 2 h, concentrations per footnote. The procedure:
as §1, §2, §3

Series [4] has as its system CD32A mRNA (IgG Fc receptor). The experiment in a line: CD32A mRNA level in leukocytes after exposure of whole blood to dietary components (no stimulating agent). Conditions: one individual; 3 hours at 37° C.; PBS control. The format is cell-based, human. The method, then:
In brief, home-made 96-well filterplates were placed over collection plates, and 150 μl 5 mM Tris, pH 7.4, was applied. Following centrifugation at 120×g for 1 min at 4° C., 50 μl of blood samples were applied to each well and immediately centrifuged at 120×g for 2 min at 4° C., followed by washing of each well with 300 μl PBS once with centrifugation at 2000×g for 5 min at 4° C. […] The filterplates were then placed over oligo(dT)-immobilized microplates (GenePlate, RNAture), and centrifuged at 2000×g for 5 min at 4° C. Following overnight storage at 4° C., the microplates were washed with 100 μl plain lysis buffer 3 times, followed by 150 μl of wash buffer (0.5 M NaCl, 10 mM Tris, pH 7.4, 1 mM EDTA) 3 times at 4° C. […] The specific primer-primed cDNA existed in solution, and oligo(dT)-primed cDNA stayed immobilized in the microplate. […] Each gene was amplified in separate wells. The Ct was determined by analytical software (SDS, ABI).

The conditions of series [5]: at 8 hours after a single soy meal; cited from earlier work.
Series [6] concerns IL-2 mRNA. The experiment in a line: PHA-induced IL-2 mRNA expression in heparinized whole blood ex vivo. The format is cell-based, human.
Series [7] concerns IL-4 mRNA. The experiment in a line: PHA-induced IL-4 mRNA expression in heparinized whole blood ex vivo. The format is cell-based, human.
Series [8] has as its system TNF-α mRNA. Description: PHA-induced TNF-α mRNA expression in heparinized whole blood ex vivo. The format is cell-based, human.
Where [9] appears, read: Subject 1, then 100 μg/mL PHA 2 h 37° C., negative = increased expression.
The mark [10] stands for this setting: Subject 2, then 100 μg/mL PHA 2 h.
[11] abbreviates: Subject 3, then 100 μg/mL PHA 2 h.
Where [12] appears, read: Subject 4, then 100 μg/mL PHA 2 h.
Setting [13] is: Subject 5, then 100 μg/mL PHA 2 h.
Setting [14] is: Subject 6, then 100 μg/mL PHA 2 h.
Setting [15] is: Subject 7, then 100 μg/mL PHA 2 h.
Setting [16] is: summary over 7 subjects of Table I.
[17] abbreviates: PHA alone, 2 hours at 37° C., FIG. 1A.

On to `O=c1c(-c2ccc(O)cc2)coc2cc(O)cc(O)c12` [Gen., genistein], for which the “ΔΔCt (mean ± standard deviation, n = 3), IL-2 mRNA” value is −0.41 ± 0.53 in the series on IL-2 mRNA [1] (setting [9]); 0.90 ± 0.44 in the series with IL-2 mRNA [1] (setting [10]); 0.11 ± 0.23 in the series with IL-2 mRNA [1] (setting [11]); 0.08 ± 0.04 in the series on IL-2 mRNA [1] (setting [12]); −0.02 ± 1.03 in the series on IL-2 mRNA [1] (setting [13]); 0.00 ± 0.27 in the series with IL-2 mRNA [1] (setting [14]). In addition, the “ΔΔCt (mean ± standard deviation, n = 3), IL-2 mRNA” value with IL-2 mRNA [1] (setting [15]) was −0.28 ± 0.20. The “effect on PHA-induced IL-2 expression, in words” value in the series on IL-2 mRNA [1] (setting [16]) is “mainly inactive”. The “ΔΔCt (mean ± standard deviation, n = 3), IL-4 mRNA” value in the series with IL-4 mRNA [2] (Subject 1) is −1.83 ± 0.20; with IL-4 mRNA [2] (Subject 2), −1.56 ± 0.46; in the series on IL-4 mRNA [2] (Subject 3), −0.82 ± 0.34; with IL-4 mRNA [2] (Subject 4), −1.04 ± 0.16; in the series on IL-4 mRNA [2] (Subject 5), −0.45 ± 0.34; with IL-4 mRNA [2] (Subject 6), −0.34 ± 0.02. The “ΔΔCt (mean ± standard deviation, n = 3), IL-4 mRNA” value in the series on IL-4 mRNA [2] (Subject 7) was determined as 0.28 ± 0.25. Moreover, the “effect on PHA-induced IL-4 expression, in words” value in the series with IL-4 mRNA [2] is “mainly inactive”. Further, the “ΔΔCt (mean ± standard deviation, n = 3), TNFα mRNA” value was −1.14 ± 0.32 in the series on TNF-α mRNA [3] (Subject 1); −1.01 ± 0.04 in the series with TNF-α mRNA [3] (Subject 2); 0.33 ± 0.62 in the series on TNF-α mRNA [3] (Subject 3); −0.16 ± 0.12 with TNF-α mRNA [3] (Subject 4); −0.32 ± 0.54 in the series on TNF-α mRNA [3] (Subject 5); −0.02 ± 0.20 in the series on TNF-α mRNA [3] (Subject 6). The “ΔΔCt (mean ± standard deviation, n = 3), TNFα mRNA” value in the series with TNF-α mRNA [3] (Subject 7) is listed as −0.17 ± 0.18. Moreover, the “effect on PHA-induced TNF-α expression, in words” value in the series with TNF-α mRNA [3] (setting [16]) is “mainly inactive”. Besides, the “conclusion from CD32A mRNA levels (FIG. 2), in words” value in series [4] is on record as “would be suitable for use in this individual in a diet optimized for anti-cancer activity”. Further, the plasma concentration in series [5] is 4000 µM.

With phytohemagglutinin [PHA], the “time for IL-2 mRNA induction to reach a plateau” value in the series on IL-2 mRNA [6] (100 μg/mL PHA, FIG. 1B) lay in the range of 30 to 60 min. In addition, in the series on IL-2 mRNA [6] (setting [17]), the “EC50 of induction of IL-2 mRNA expression” value lay in the range of 10 to 20 µg/mL. In addition, the “time for IL-4 mRNA induction to reach a plateau” value in the series with IL-4 mRNA [7] (100 μg/mL PHA, FIG. 1B) is 30 to 60 min. The “EC50 of induction of IL-4 mRNA expression” value in the series with IL-4 mRNA [7] (setting [17]) lay in the range of 10 to 20 µg/mL. The “time for TNF-α mRNA induction to reach a plateau” value in the series with TNF-α mRNA [8] (100 μg/mL PHA, FIG. 1B) was in the range of 30 to 60 min. In addition, in the series on TNF-α mRNA [8] (setting [17]), the “EC50 of induction of TNF-α mRNA expression” value was 10 to 20 µg/mL.

As to vitamin D [VD], the “ΔΔCt (mean ± standard deviation, n = 3), IL-2 mRNA” value with IL-2 mRNA [1] (setting [9]) is −0.13 ± 0.07; in the series with IL-2 mRNA [1] (setting [10]) it was 0.06 ± 0.40; with IL-2 mRNA [1] (setting [11]), 0.00 ± 0.15; in the series with IL-2 mRNA [1] (setting [12]) it was −0.31 ± 0.30; with IL-2 mRNA [1] (setting [13]), −0.45 ± 0.61; in the series with IL-2 mRNA [1] (setting [14]) it was −0.55 ± 0.14. Besides, the “ΔΔCt (mean ± standard deviation, n = 3), IL-2 mRNA” value with IL-2 mRNA [1] (setting [15]) is listed as −0.86 ± 0.12. Also, the “ΔΔCt (mean ± standard deviation, n = 3), IL-4 mRNA” value is on record as −0.17 ± 1.0 in the series with IL-4 mRNA [2] (Subject 1); 0.06 ± 0.15 with IL-4 mRNA [2] (Subject 2); −0.77 ± 0.40 in the series on IL-4 mRNA [2] (Subject 3); −0.43 ± 0.17 in the series on IL-4 mRNA [2] (Subject 4); −1.22 ± 0.17 in the series on IL-4 mRNA [2] (Subject 5); −0.77 ± 0.09 with IL-4 mRNA [2] (Subject 6). Further, the “ΔΔCt (mean ± standard deviation, n = 3), IL-4 mRNA” value in the series on IL-4 mRNA [2] (Subject 7) was −1.30 ± 0.22. In addition, the “effect on PHA-induced IL-4 expression, in words” value in the series with IL-4 mRNA [2] is “enhanced IL-4 expression, with 1-3 exceptions”. Besides, the “ΔΔCt (mean ± standard deviation, n = 3), TNFα mRNA” value is given as −0.25 ± 1.47 in the series with TNF-α mRNA [3] (Subject 1); 0.14 ± 0.40 with TNF-α mRNA [3] (Subject 2); −0.04 ± 0.27 in the series with TNF-α mRNA [3] (Subject 3); 0.09 ± 0.16 with TNF-α mRNA [3] (Subject 4); −1.21 ± 0.14 in the series on TNF-α mRNA [3] (Subject 5); −0.48 ± 0.04 in the series on TNF-α mRNA [3] (Subject 6). The “ΔΔCt (mean ± standard deviation, n = 3), TNFα mRNA” value with TNF-α mRNA [3] (Subject 7) was −0.40 ± 0.15. The “conclusion from CD32A mRNA levels (FIG. 2), in words” value in series [4] was “would be suitable for use in this individual in a diet optimized for anti-cancer activity”.
